Laboratory results taken from patent publication US20090004166A1, “Carrier For Enternal Administration” (priority 2004, published 2009).

Test system: Sprague-Dawley rats
Conditions: oral gavage, 5 mg/kg, heat source ~45° C.
Description: The effect was measured by comparison of times taken for a rat to withdraw its paw in response to heat when medicated and unmedicated with morphine.
Animals: Nine conscious Sprague-Dawley rats weighing between 350-450 grams each Treatment groups: • 1. […] Morphine with TPm: morphine HCl (14%) in a carrier containing water (59%) and a tocopheryl phosphate mixture (27%) (TPm). The TPm contained mono-tocopheryl phosphate and di-tocopheryl phosphate.
Formulations 2 and 3 were diluted with water and the final morphine concentration was made up to 5 mg/ml. […] This liquid formulation was then delivered to the animals by oral gavage (tube into stomach).
The experiment used nine rats that were divided into three groups. […]
Analgesic testing was performed at 1, 2, 4 and 6 hours and at each time point withdrawal latency was measured three times on each rat (with at least five minutes rest if using the same paw).
A plantar analgesiometer designed for rapid and efficient screening of analgesia levels in small laboratory animals was used. The device applied a heat source (˜45° C. from an infrared light) to the animal's hindpaw and the time taken to withdraw the paw from the heat source was measured (paw withdrawal latency). […] The animal was placed on a hot plate, confined by a clear acrylic cage which surrounds the plate and paw withdrawal response was monitored. […]

CN1CC[C@]23c4c5ccc(O)c4O[C@H]2[C@@H](O)C=C[C@H]3[C@H]1C5.O=S(=O)(O)O [morphine sulphate]
paw withdrawal latency (analgesia): increase in latency
